Experimental data: ChEMBL document CHEMBL1201862, “PubChem BioAssay data set” (2004)
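These data come from cells grown in 96-well plates and exposed to compound for 48 hours at five concentrations. Abbreviation: GI50, concentration required for 50% inhibition of growth.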 Active and inactive are the calls of the source. Cut-off read from the data, not from the text of the source: active = GI50 up to about 1.1 µM and inactive = higher.

Key:
Test in all cases: growth of human tumour cells (NCI), 48 h
COLO 205 = system: COLO 205
HCT-116 = system: HCT-116
BT-549 = system: BT-549
CCRF-CEM = system: CCRF-CEM
EKVX = system: EKVX
MDA-N = system: MDA-N
A498 = system: A498
NCI/ADR-RES = system: NCI/ADR-RES
UACC-257 = system: UACC-257
SR = system: SR
OVCAR-8 = system: OVCAR-8
Malme-3M = system: Malme-3M
A549 = system: A549
SK-MEL-28 = system: SK-MEL-28
786-0 = system: 786-0
KM12 = system: KM12
SF-295 = system: SF-295
OVCAR-4 = system: OVCAR-4
MDA-MB-231 = system: MDA-MB-231
LOX IMVI = system: LOX IMVI

Measured: GI50

COc1cc(COC(=O)NC(Cc2cccs2)C(=O)O)c([N+](=O)[O-])cc1OC (stereo not given)
inactive: COLO 205 > 100 µM | HCT-116 > 100 µM | BT-549 > 100 µM | CCRF-CEM > 100 µM | EKVX > 100 µM | MDA-N > 100 µM | A498 39.3 µM | NCI/ADR-RES > 100 µM | UACC-257 > 100 µM | SR > 100 µM | OVCAR-8 > 100 µM | Malme-3M > 100 µM | A549 > 100 µM | SK-MEL-28 > 100 µM | 786-0 > 100 µM | KM12 > 100 µM | SF-295 > 100 µM

COc1c(C)c2nc3ccccc3nc2c2c(O)ccnc12
inactive: COLO 205 46.1 µM | HCT-116 > 100 µM | CCRF-CEM > 100 µM | EKVX > 100 µM | OVCAR-4 > 100 µM | MDA-MB-231 > 100 µM | MDA-N > 100 µM | A498 43.3 µM | NCI/ADR-RES > 100 µM | UACC-257 > 100 µM | SR > 100 µM | OVCAR-8 50.5 µM | Malme-3M > 100 µM | A549 37.1 µM | SK-MEL-28 > 100 µM | 786-0 16.9 µM | KM12 > 100 µM | LOX IMVI > 100 µM | SF-295 43.2 µM

COc1cc(Nc2cnc3cc(F)c(F)cc3n2)cc(OC)c1
inactive: COLO 205 > 100 µM | HCT-116 58.1 µM | BT-549 33.9 µM | CCRF-CEM > 100 µM | EKVX > 100 µM | OVCAR-4 > 100 µM | MDA-N > 100 µM | A498 53.6 µM | NCI/ADR-RES 90.4 µM | UACC-257 > 100 µM | SR > 100 µM | OVCAR-8 > 100 µM | Malme-3M > 100 µM | A549 > 100 µM | SK-MEL-28 > 100 µM | 786-0 37.9 µM | KM12 > 100 µM | LOX IMVI 67.3 µM | SF-295 36 µM

COc1ccc(C(CC(=O)c2ccc3c(c2)OCO3)c2c(O)oc3ccccc3c2=O)cc1OC (stereo not given)
inactive: COLO 205 63.4 µM | HCT-116 75.3 µM | BT-549 36.2 µM | CCRF-CEM > 100 µM | EKVX > 100 µM | OVCAR-4 61.8 µM | MDA-MB-231 > 100 µM | MDA-N > 100 µM | A498 > 100 µM | NCI/ADR-RES > 100 µM | UACC-257 > 100 µM | OVCAR-8 > 100 µM | Malme-3M > 100 µM | A549 51.1 µM | SK-MEL-28 > 100 µM | 786-0 > 100 µM | KM12 > 100 µM | LOX IMVI 66.5 µM | SF-295 > 100 µM

CCOP(=O)(OCC)C1C(CO)OC(n2ccc(=O)[nH]c2=O)C1O (stereo not given)
inactive: HCT-116 > 100 µM | BT-549 > 100 µM | CCRF-CEM > 10 µM | EKVX > 100 µM | OVCAR-4 74.5 µM | MDA-MB-231 > 100 µM | MDA-N > 100 µM | A498 > 100 µM | UACC-257 > 100 µM | SR > 100 µM | OVCAR-8 > 100 µM | Malme-3M > 100 µM | A549 > 100 µM | SK-MEL-28 > 100 µM | 786-0 > 100 µM | KM12 > 100 µM | LOX IMVI > 100 µM | SF-295 > 100 µM

Cc1cc(S(=O)(=O)Nc2nc(N)nc(N3CCOCC3)n2)c(SCC(=O)O)cc1Cl
inactive: COLO 205 > 10 µM | HCT-116 > 10 µM | BT-549 > 10 µM | CCRF-CEM > 10 µM | EKVX > 10 µM | OVCAR-4 > 10 µM | MDA-N > 10 µM | A498 > 10 µM | NCI/ADR-RES > 10 µM | UACC-257 > 10 µM | SR > 10 µM | OVCAR-8 > 10 µM | Malme-3M > 10 µM | A549 > 10 µM | SK-MEL-28 > 10 µM | 786-0 > 10 µM | KM12 > 10 µM | LOX IMVI > 10 µM | SF-295 > 10 µM

CC(=O)OCC(C)C1=C(O)C(=O)C2(C)C/C=C(/C)CC/C=C(\C)CCC(O)C(C)CCC12 (stereo not given)
inactive: COLO 205 17.1 µM | HCT-116 18.8 µM | CCRF-CEM 21.5 µM | EKVX 16.4 µM | OVCAR-4 17.5 µM | MDA-MB-231 16.3 µM | MDA-N 17 µM | A498 21.6 µM | NCI/ADR-RES 21.1 µM | UACC-257 18.6 µM | SR 7.89 µM | OVCAR-8 18.1 µM | Malme-3M 17.4 µM | A549 18 µM | SK-MEL-28 16.7 µM | 786-0 16.9 µM | KM12 14.2 µM | LOX IMVI 18.1 µM | SF-295 15.6 µM

CN(C(=O)c1ccccc1)C1CCCC(=O)CC1 (stereo not given)
inactive: COLO 205 > 100 µM | HCT-116 > 100 µM | BT-549 > 100 µM | CCRF-CEM > 100 µM | EKVX > 100 µM | OVCAR-4 > 100 µM | MDA-MB-231 > 100 µM | MDA-N > 100 µM | A498 > 100 µM | UACC-257 > 100 µM | SR > 100 µM | OVCAR-8 > 100 µM | Malme-3M > 100 µM | A549 > 100 µM | SK-MEL-28 > 100 µM | 786-0 > 100 µM | KM12 > 100 µM | LOX IMVI > 100 µM | SF-295 > 100 µM

NC(=O)c1cc(-c2ccc(-n3ccnc3)cc2)nnc1O
inactive: COLO 205 > 100 µM | HCT-116 > 100 µM | BT-549 > 100 µM | CCRF-CEM > 100 µM | EKVX > 100 µM | OVCAR-4 > 100 µM | MDA-N > 100 µM | A498 > 100 µM | UACC-257 > 100 µM | SR > 100 µM | OVCAR-8 > 100 µM | Malme-3M > 100 µM | A549 > 100 µM | SK-MEL-28 > 100 µM | 786-0 > 100 µM

CC(C)=CCc1ccc2[nH]c3c(c2c1)C(=O)C(=O)C(C)=C3C(O)C(C)O (stereo not given)
inactive: COLO 205 2.16 µM | HCT-116 1.78 µM | CCRF-CEM 1.55 µM | EKVX 16.1 µM | OVCAR-4 3.72 µM | MDA-MB-231 3.54 µM | MDA-N 3.06 µM | A498 12.5 µM | NCI/ADR-RES 15.1 µM | UACC-257 2.06 µM | SR 2.45 µM | OVCAR-8 2.13 µM | Malme-3M 1.78 µM | A549 21.8 µM | SK-MEL-28 7.19 µM | 786-0 1.87 µM | KM12 16.5 µM | LOX IMVI 2 µM | SF-295 12.2 µM

CC(C)(C)C1=CC(C)(n2[nH]c(=O)n(-c3ccccc3)c2=O)C=C(C(C)(C)C)C1=O
inactive: COLO 205 > 100 µM | HCT-116 > 100 µM | BT-549 > 100 µM | OVCAR-4 > 100 µM | MDA-MB-231 > 100 µM | MDA-N > 100 µM | A498 > 100 µM | NCI/ADR-RES > 100 µM | UACC-257 > 100 µM | OVCAR-8 > 100 µM | Malme-3M > 100 µM | A549 > 100 µM | SK-MEL-28 > 100 µM | 786-0 > 100 µM | KM12 > 100 µM | LOX IMVI > 100 µM | SF-295 > 100 µM
